Marks after values point to notes of the source that are not given here.
Experiments:
Listeria monocytogenes = Listeria monocytogenes growth in inoculated raw minced beef under modified atmosphere; type: cell-based; conditions: for Measured effect on Listeria monocytogenes growth: [(log(CFU/mL) in meat treated with plant extracts) − (log(CFU/mL) control meat (without treatment))]: rosemary/hesperidin series added at 1.18% to minced beef, 8° C., 70% O2 and 30% CO2; for Expected effect on Listeria monocytogenes growth (difference of log(CFU/mL) to control meat): rosemary/hesperidin series, calculated from effects of the single extracts
Protocol: In the course of the work leading to the present method and composition, mixtures of rosemary extract and of hesperidin or of Punica extract, in a number of varying concentration ratios were tested for antilisterial effectiveness using the classical microbiological methods. Bacterial enumeration in all here studied samples was performed on the Aloa medium according to the standardized method (NF EN ISO 11-290). The growth of Listeria monocytogenes was evaluated in meat without any antilisterial agent and without any plant extract (control). The data of listerial growth in a control meat are represented in FIG. 2. […] Following the meat manufacture, a batch of meat was sampled straight after the mincing process and transported in refrigerated conditions to the laboratory. […] Any further supplementation to the meat was conducted in such a laboratory. […] Plant extracts were in powder form and were added as such to the meat. To keep them as dry powders, plant extracts were supplemented with maltodextrin prior to drying process. […] Control meat pieces, without extract treatment, followed the same procedure. […] Packaged meat was stored in the dark for a stated amount of time. A series of experiments involving rosemary and hesperidin extracts, rosemary and Punica extracts, typical antilisterial compounds (Sodium lactate or Sodium acetate) and untreated control were conducted. Mixtures or alone extracts of rosemary and of hesperidin were added at 1.18% to the meat. […] Such analyses were conducted on the 0th, 6th and 9th day of storage. The growth of Listeria monocytogenes was evaluated in meat in refrigerated conditions for each extract or compound and for their combinations. […] Logarithmic values of Listerial growth (log CFU/mL) were calculated for each experiment and treatment. Differences of logarithmic values of Listerial growth (log CFU/mL) between the meat treated with plant extracts and the untreated control were calculated to yield a final result. The more negative value was obtained, the higher was the antilisterial effect of the extract or of the combination of extracts. […] (Guide pour la validation de méthodes d'essais microbiologiques et l'évaluation de leur incertitude de mesure dans les domaines de la microbiologie […]'environnement), Schweizerische Eidgenossenschaft, Confédération suisse, Département […]'économie, de la formation et de la recherche DEFR, Document No. 328, April 2013, Rev. 03).

Listeria = conditions: pure form; cited from earlier work
[1] = stored in cold; applied at 300 ppm; cited from earlier work

hesperidin [0.5H]
Measured effect on Listeria monocytogenes growth: [(log(CFU/mL) in meat treated with plant extracts) − (log(CFU/mL) control meat (without treatment))] (Listeria monocytogenes; after 6 days of growth): −0.37* log(CFU/mL) | Measured effect on Listeria monocytogenes growth: [(log(CFU/mL) in meat treated with plant extracts) − (log(CFU/mL) control meat (without treatment))] (Listeria monocytogenes; after 9 days of growth): −0.71* log(CFU/mL) | Expected effect on Listeria monocytogenes growth (difference of log(CFU/mL) to control meat) (Listeria monocytogenes; after 6 days of growth): −0.045 log(CFU/mL) | Expected effect on Listeria monocytogenes growth (difference of log(CFU/mL) to control meat) (Listeria monocytogenes; after 9 days of growth): −0.32 log(CFU/mL)

COc1ccc([C@@H]2CC(=O)c3c(O)cc(O[C@@H]4O[C@H](CO)[C@@H](O)[C@H](O)[C@H]4O[C@@H]4O[C@@H](C)[C@H](O)[C@@H](O)[C@H]4O)cc3O2)cc1O [neohesperidin]
Effect on Listerial growth in vitro (Listeria): no effect

COc1ccc([C@@H]2CC(=O)c3c(O)cc(O[C@@H]4O[C@H](CO[C@@H]5O[C@@H](C)[C@H](O)[C@@H](O)[C@H]5O)[C@@H](O)[C@H](O)[C@H]4O)cc3O2)cc1O [Hesperidin]
Extract proportion in combination that provide antilisterial response in meat (Listeria monocytogenes; surface response methodology (FIG. 4), response difference to control <0.5 log(CFU/mL) as printed, total added to meat not above 1.18%): 0.5-48.0%

O=c1oc2c(O)c(O)cc3c(=O)oc4c(O)c(O)cc1c4c23 [ellagic acid]
Antimicrobial effect on raw beef MAP meat [1]: no antimicrobial effect

hesperidin
Measured effect on Listeria monocytogenes growth: [(log(CFU/mL) in meat treated with plant extracts) − (log(CFU/mL) control meat (without treatment))] (Listeria monocytogenes; after 6 days of growth): −0.09 log(CFU/mL) | Measured effect on Listeria monocytogenes growth: [(log(CFU/mL) in meat treated with plant extracts) − (log(CFU/mL) control meat (without treatment))] (Listeria monocytogenes; after 9 days of growth): −0.64 log(CFU/mL)

Source: US20180249725A1, “ANTIMICROBIAL COMPOSITIONS” (priority 2015, published 2018)
